Measured values published in ChEMBL document CHEMBL1153701, “Synthesis and evaluation of antiallodynic and anticonvulsant activity of novel amide and urea derivatives of valproic acid analogues” (2009).
Calls of active or inactive are those of the source. The rule behind the calls is not given here.

Tests used:
Assay type in all cases: functional, organism-based
[1] = test system: Mus musculus; assay: Antiepileptic activity in CF1 mouse assessed as inhibition of subcutaneous pentylenetetrazole-induced seizures at 30 mg/kg, ip after 0.5 hrs; set-up: dose 30 mg/kg
[2] = test system: Mus musculus; assay: Antiepileptic activity in CF1 mouse assessed as inhibition of subcutaneous pentylenetetrazole-induced seizures at 30 mg/kg, ip after 4 hrs; set-up: dose 30 mg/kg
[3] = test system: Mus musculus; assay: Neurotoxicity in CF1 mouse assessed as protection against motor impairment at 100 mg/kg, ip after 4 hrs by rotarod test; set-up: dose 100 mg/kg
[4] = test system: Mus musculus; assay: Antiepileptic activity in CF1 mouse assessed as inhibition of subcutaneous pentylenetetrazole-induced seizures at 300 mg/kg, ip after 0.5 hrs; set-up: dose 300 mg/kg
[5] = test system: Mus musculus; assay: Antiepileptic activity in CF1 mouse assessed as inhibition of subcutaneous pentylenetetrazole-induced seizures at 100 mg/kg, ip after 4 hrs; set-up: dose 100 mg/kg
[6] = test system: Mus musculus; assay: Antiepileptic activity in CF1 mouse assessed as inhibition of subcutaneous pentylenetetrazole-induced seizures at 300 mg/kg, ip after 4 hrs; set-up: dose 300 mg/kg
[7] = test system: Mus musculus; assay: Neurotoxicity in CF1 mouse assessed as protection against motor impairment at 30 mg/kg, ip after 4 hrs by rotarod test; set-up: dose 30 mg/kg
[8] = test system: Mus musculus; assay: Antiepileptic activity in CF1 mouse assessed as inhibition of maximal electroshock-induced seizures at 300 mg/kg, ip after 4 hrs; set-up: dose 300 mg/kg
[9] = test system: Mus musculus; assay: Neurotoxicity in CF1 mouse assessed as protection against motor impairment at 300 mg/kg, ip after 4 hrs by rotarod test; set-up: dose 300 mg/kg
[10] = test system: Mus musculus; assay: Antiepileptic activity in CF1 mouse assessed as inhibition of maximal electroshock-induced seizures at 30 mg/kg, ip after 4 hrs; set-up: dose 30 mg/kg
[11] = test system: Mus musculus; assay: Antiepileptic activity in CF1 mouse assessed as inhibition of subcutaneous pentylenetetrazole-induced seizures at 100 mg/kg, ip after 0.5 hrs; set-up: dose 100 mg/kg
[12] = test system: Mus musculus; assay: Antiepileptic activity in CF1 mouse assessed as inhibition of maximal electroshock-induced seizures at 300 mg/kg, ip after 0.5 hrs; set-up: dose 300 mg/kg
[13] = test system: Mus musculus; assay: Antiepileptic activity in CF1 mouse assessed as inhibition of maximal electroshock-induced seizures at 30 mg/kg, ip after 0.5 hrs; set-up: dose 30 mg/kg
[14] = test system: Mus musculus; assay: Antiepileptic activity in CF1 mouse assessed as inhibition of maximal electroshock-induced seizures at 100 mg/kg, ip after 4 hrs; set-up: dose 100 mg/kg
[15] = test system: Mus musculus; assay: Neurotoxicity in CF1 mouse assessed as protection against motor impairment at 300 mg/kg, ip after 0.5 hrs by rotarod test; set-up: dose 300 mg/kg
[16] = test system: Mus musculus; assay: Antiepileptic activity in CF1 mouse assessed as inhibition of maximal electroshock-induced seizures at 100 mg/kg, ip after 0.5 hrs; set-up: dose 100 mg/kg
[17] = test system: Mus musculus; assay: Neurotoxicity in CF1 mouse assessed as protection against motor impairment at 30 mg/kg, ip after 0.5 hrs by rotarod test; set-up: dose 30 mg/kg
[18] = test system: Rattus norvegicus; assay: Antiallodynic activity in rat assessed as protection against spinal nerve ligation-induced neuropathic pain at 80 mg/kg, ip after 240 mins; set-up: dose 80 mg/kg
[19] = test system: Rattus norvegicus; assay: Antiallodynic activity in rat assessed as protection against spinal nerve ligation-induced neuropathic pain at 80 mg/kg, ip after 60 mins; set-up: dose 80 mg/kg
[20] = test system: Rattus norvegicus; assay: Antiallodynic activity in rat assessed as protection against spinal nerve ligation-induced neuropathic pain at 80 mg/kg, ip after 30 mins; set-up: dose 80 mg/kg
[21] = test system: Mus musculus; assay: Neurotoxicity in CF1 mouse assessed as protection against motor impairment at 100 mg/kg, ip after 0.5 hrs by rotarod test; set-up: dose 100 mg/kg

Row | SMILES | Activity [1] | Activity [2] | Activity [3] | Activity [4] | Activity [5] | Activity [6] | Activity [7] | Activity [8] | Activity [9] | Activity [10] | Activity [11] | Activity [12] | Activity [13] | Activity [14] | Activity [15] | Activity [16] | Activity [17] | Activity [20] | Activity [21] | other results
1 | CC(C)C(C(=O)NC(N)=O)C(C)C | inactive | inactive | inactive | Active | inactive | inactive | inactive | Active | Active | inactive | Active | Active | inactive | inactive | Active |  |  |  |  | 
2 | CC(C)CC(C(N)=O)C(C)C (centres undefined) | inactive | inactive | inactive | Active | inactive | inactive | inactive | inactive | inactive | inactive | inactive | inactive | inactive | inactive |  | inactive | inactive |  |  | Activity [18]: inactive
3 | CCC(CC)C(N)=O | inactive | inactive | inactive | inactive | inactive | inactive | inactive | inactive | inactive | inactive | inactive | Active | inactive | inactive | inactive |  | inactive | inactive |  | Activity [19]: inactive
4 | CCCC(CC)C(N)=O (centres undefined) | inactive | inactive | inactive | Active | inactive | inactive | inactive | Active | inactive | inactive | inactive | Active | inactive | inactive |  |  | inactive |  | inactive | 
5 | CCC(C(N)=O)C(C)C (centres undefined) | inactive | inactive | inactive | inactive | inactive | inactive | inactive | inactive | inactive | inactive | inactive | Active | inactive | inactive |  | inactive | inactive |  | inactive | 
6 | CC(C)(C)C(=O)NC(N)=O |  |  |  |  |  |  |  |  |  |  |  |  |  |  |  |  |  | inactive |  | Activity [18]: inactive
7 | CCCC(CC(C)C)C(N)=O (centres undefined) | inactive | inactive | inactive | Active | inactive | inactive | inactive | inactive | inactive | inactive | inactive | Active | inactive | inactive | Active | inactive | inactive |  | inactive | Activity [18]: inactive
8 | CNC(=O)C(C(C)C)C(C)C | inactive | inactive | inactive |  | inactive | inactive | inactive | inactive | inactive | inactive | inactive | Active | inactive | inactive |  | inactive | inactive | inactive |  | 
9 | CC(C)(C)C(N)=O | inactive | inactive | inactive | inactive | inactive | inactive | inactive | inactive | inactive | inactive |  | inactive | inactive | inactive | inactive | inactive | inactive |  | inactive | Activity [18]: inactive
10 | CCCCC(CC)C(=O)NC (centres undefined) | inactive | inactive | inactive | Active | inactive | inactive | inactive | Active | inactive | inactive | inactive | Active | inactive | inactive | Active |  | inactive | inactive | inactive | 
11 | CC(C)C(C(N)=O)C(C)(C)C (centres undefined) | inactive | inactive | inactive | Active | inactive | Active | inactive | Active | Active | inactive | Active | Active | inactive | inactive | Active |  | inactive |  |  | 
12 | CCCC(C(=O)NC)C(C)C (centres undefined) | inactive | inactive | inactive | Active | inactive | inactive | inactive | inactive | inactive | inactive | inactive | inactive | inactive | inactive | Active | inactive | inactive | inactive | inactive | 
13 | CCC(CC(C)C)C(N)=O (centres undefined) | inactive | inactive | inactive |  | inactive | Active | inactive | inactive | inactive | inactive | inactive | Active | inactive | inactive | Active | inactive | inactive | inactive | inactive | 
14 | CCCC(CCC)C(=O)NC(N)=O | inactive | inactive | inactive | Active | inactive | inactive |  | Active |  | inactive | Active | Active | inactive | inactive |  | Active |  |  |  | 
15 | CCC(C)C(CC)C(=O)NC (centres undefined) | inactive | inactive | inactive | Active | inactive | inactive | inactive | inactive | inactive | inactive | inactive | inactive | inactive | inactive |  | inactive | inactive | inactive |  | 
